Test results from patent US9650340B2, “5-fluoro-N-(pyridin-2-yl)pyridin-2-amine derivatives containing a sulfoximine group” (BAYER PHARMA AKTIENGESELLSCHAFT, priority 2012, dated 2017).
Structures can show the parent of a compound that is named as a salt. Where two headings read alike, the source gives them in different places.

Columns and labels:
[1] = system: B16F10, mouse melanoma cells; test: Proliferation assay, B16F10 (crystal violet); format: cell-based; conditions: B16F10, 4 days, read-out: Inhibition of B16F10 cell proliferation IC50
Method: (§1) Cultivated tumour cells (HeLa, human cervical tumour cells, ATCC CCL-2; NCI-H460, human non-small cell lung carcinoma cells, ATCC HTB-177; A2780, human ovarian carcinoma cells, ECACC #93112519; DU 145, hormone-independent human prostate carcinoma cells, ATCC HTB-81; HeLa-MaTu-ADR, multidrug-resistant human cervical carcinoma cells, EPO-GmbH Berlin; Caco-2, human colorectal carcinoma cells, ATCC HTB-37; B16F10, mouse melanoma cells, ATCC CRL-6475) were plated at a density of 5,000 cells/well (DU145, HeLa-MaTu-ADR), 3,000 cells/well (NCI-H460, HeLa), 2,500 cells/well (A2780), 1,500 cells/well (Caco-2), or 1,000 cells/well (B16F10) in a 96-well multititer plate in 200 μL of their respective growth medium supplemented 10% fetal calf serum. After 24 hours, the cells of one plate (zero-point plate) were stained with crystal violet (see below), while the medium of the other plates was replaced by fresh culture medium (200 μl), to which the test substances were added in various concentrations (0 μM, as well as in the range of 0.001-10 μM; the final concentration of the solvent dimethyl sulfoxide was 0.5%). The cells were incubated for 4 days in the presence of test substances. Cell proliferation was determined by staining the cells with crystal violet: the cells were fixed by adding 20 μl/measuring point of an 11% glutaric aldehyde solution for 15 minutes at room temperature. After three washing cycles of the fixed cells with water, the plates were dried at room temperature. The cells were stained by adding 100 μl/measuring point of a 0.1% crystal violet solution (pH 3.0). After three washing cycles of the stained cells with water, the plates were dried at room temperature. The dye was dissolved by adding 100 μl/measuring point of a 10% acetic acid solution. The extinction was determined by photometry at a wavelength of 595 nm. The change of cell number, in percent, was calculated by normalization of the measured values to the extinction values of the zero-point plate (=0%) and the extinction of the untreated (0 μm) cells (=100%). The IC50 values (inhibitory concentration at 50% of maximal effect) were determined by means of a 4 parameter fit. Non-adherent MOLM-13 human acute myeloid leukemia cells (DSMZ ACC 554) were seeded at a density of 5,000 cells/well in a 96-well multititer plate in 100 μL of growth medium supplemented 10% fetal calf serum. After 24 hours, cell viability of one plate (zero-point plate) was determined with the Cell Titre-Glo Luminescent Cell Viability Assay (Promega), while 50 μL of test compound containing medium was added to the wells of the other plates (final concentrations in the range of 0.001-10 μM and DMSO controls; the final concentration of the solvent dimethyl sulfoxide was 0.5%). Cell viability was assessed after 72-hour exposure with the Cell Titre-Glo Luminescent Cell Viability Assay (Promega).

CDK2/CycE = target: T1, CDK2/CycE (Homo sapiens, UniProt P24941); test: CDK2/CycE kinase assay (TR-FRET, 10 μM ATP); format: biochemical; conditions: Method 2 (2a)
T1 construct: GST; purchased ProQinase GmbH (Freiburg, Germany); host or cells: insect cells (Sf9)
From the text: 2a. CDK2/CycE Kinase Assay:
CDK2/CycE-inhibitory activity of compounds of the present invention was quantified employing the CDK2/CycE TR-FRET assay as described in the following paragraphs:
Recombinant fusion proteins of GST and human CDK2 and of GST and human CycE, expressed in insect cells (Sf9) and purified by Glutathion-Sepharose affinity chromatography, were purchased from ProQinase GmbH (Freiburg, Germany). As substrate for the kinase reaction biotinylated peptide biotin-Ttds-[…] (C-terminus in amid form) was used which can be purchased e.g. form the company JERINI Peptide Technologies (Berlin, Germany).
For the assay 50 nl of a 100 fold concentrated solution of the test compound in DMSO was pipetted into a black low volume 384 well microtiter plate (Greiner Bio-One, Frickenhausen, Germany), 2 μl of a solution of CDK2/CycE in aqueous assay buffer [50 mM Tris/HCl pH 8.0, 10 mM MgCl2, 1.0 mM dithiothreitol, 0.1 mM sodium ortho-vanadate, 0.01% (v/v) Nonidet-P40 (Sigma)] were added and the mixture was incubated for 15 min at 22° C. to allow pre-binding of the test compounds to the enzyme before the start of the kinase reaction. Then the kinase reaction was started by the addition of 3 μl of a solution of adenosine-tri-phosphate (ATP, 16.7 μM=>final conc. in the 5 μl assay volume is 10 μM) and substrate (1.25 μM=>final conc. in the 5 μl assay volume is 0.75 μM) in assay buffer and the resulting mixture was incubated for a reaction time of 25 min at 22° C. The concentration of CDK2/CycE was adjusted depending of the activity of the enzyme lot and was chosen appropriate to have the assay in the linear range, typical concentrations were in the range of 130 ng/mL The reaction was stopped by the addition of 5 μl of a solution of TR-FRET detection reagents (0.2 μM streptavidine-XL665 [Cisbio Bioassays, Codolet, France] and 1 nM anti-RB(pSer807/pSer811)-antibody from BD Pharmingen [#558389] and 1.2 nM LANCE EU-W1024 labeled anti-mouse IgG antibody [Perkin-Elmer, product no. AD0077]) in an aqueous EDTA-solution (100 mM EDTA, 0.2% (w/v) bovine serum albumin in 100 mM HEPES/NaOH pH 7.0).
The resulting mixture was incubated 1 h at 22° C. to allow the formation of complex between the phosphorylated biotinylated peptide and the detection reagents. Subsequently the amount of phosphorylated substrate was evaluated by measurement of the resonance energy transfer from the Eu-chelate to the streptavidine-XL. Therefore, the fluorescence emissions at 620 nm and 665 nm after excitation at 350 nm was measured in a TR-FRET reader, e.g. a Rubystar (BMG Labtechnologies, Offenburg, Germany) or a Viewlux (Perkin-Elmer). The ratio of the emissions at 665 nm and at 622 nm was taken as the measure for the amount of phosphorylated substrate.

[2] = system: HeLa-MaTu-ADR, multidrug-resistant human cervical carcinoma cells; test: Proliferation assay, HeLa-MaTu-ADR (crystal violet); format: cell-based; conditions: 4 days, read-out: Inhibition of HeLa-MaTu-ADR cell proliferation IC50
Method: as §1

Row | Compound | IC50 ([1]; Mus musculus, B16-F10, 96 h) [µM] | IC50 (CDK2/CycE) [µM] | IC50 ([2]; Homo sapiens, 96 h) [µM] | IC50 [1] [µM] | IC50 [2] [µM]
1 | COc1cc(F)ccc1-c1cc(Nc2cc(CS(=N)(=O)CCO)ccn2)ncc1F (racemic) [Example 8, (rac)-2-{S-[(2-{[5-Fluoro-4-(4-fluoro-2-methoxyphenyl)pyridin-2-yl]amino}pyridin-4-yl)methyl]sulfonimidoyl}ethanol] | 0.186 | 0.43 | 0.2 |  | 
2 | COc1cc(F)ccc1-c1cc(Nc2cc(CS(C)(=O)=NC(=O)C(F)(F)F)cc(C(F)(F)F)n2)ncc1F (single isomer, unassigned; (+)) [Example 24, (+)-2,2,2-Trifluoro-N-[{[2-{[5-fluoro-4-(4-fluoro-2-methoxyphenyl)pyridin-2-yl]amino}-6-(trifluoromethyl)-pyridin-4-yl]methyl}(methyl)oxido-λ^6-sulfanylidene]acetamide] | 0.043 | 0.25 | 0.03 |  | 
3 | COc1cc(F)ccc1-c1cc(Nc2cc(CS(C)(=N)=O)cc(F)n2)ncc1F (single isomer, unassigned; (+)) [Example 19, (+)-5-Fluoro-4-(4-fluoro-2-methoxyphenyl)-N-{6-fluoro-4-[(S-methylsulfonimidoyl)methyl]pyridin-2-yl}pyridin-2-amine] | 0.095 | 0.094 | 0.064 |  | 
4 | CCOc1cc(F)ccc1-c1cc(Nc2cc(CS(C)(=N)=O)cc(F)n2)ncc1F (racemic) [Example 26, (rac)-4-(2-Ethoxy-4-fluorophenyl)-5-fluoro-N-{6-fluoro-4-[(S-methylsulfonimidoyl)methyl]pyridin-2-yl}pyridin-2-amine] | 0.15 | 0.11 | 0.049 |  | 
5 | COc1cc(F)ccc1-c1cc(Nc2cc(CS(C)(=N)=O)ccn2)ncc1F (single isomer, unassigned; enantiomer 1) [Example 16, 5-Fluoro-4-(4-fluoro-2-methoxyphenyl)-N-{4-[(S-methylsulfonimidoyl)methyl]pyridin-2-yl}pyridin-2-amine hydrochloride; enantiomer 1] |  | 0.43 |  | 0.15 | 0.11
6 | COc1cc(F)ccc1-c1cc(Nc2cc(CS(C)(=N)=O)cc(C)n2)ncc1F (single isomer, unassigned; (+)) [Example 32, (+)-5-Fluoro-4-(4-fluoro-2-methoxyphenyl)-N-{6-methyl-4-[(S-methylsulfonimidoyl)methyl]pyridin-2-yl}pyridin-2-amine] | 0.098 | 0.12 | 0.053 |  | 
7 | CCOC(=O)N=S(C)(=O)Cc1cc(Nc2cc(-c3ccc(F)cc3OC)c(F)cn2)nc(OC)c1 (racemic) [Example 15, (rac)-ethyl{[(2-{[5-fluoro-4-(4-fluoro-2-methoxyphenyl)pyridin-2-yl]amino}-6-methoxypyridin-4-yl)methyl](methyl)oxido-λ^6-sulfanylidene}carbamate] | 0.045 | 0.01 | 0.031 |  | 
8 | COc1cc(F)ccc1-c1cc(Nc2cc(CS(C)(=N)=O)ccn2)ncc1F (single isomer, unassigned; (-)) [Example 3, (−)-5-Fluoro-4-(4-fluoro-2-methoxyphenyl)-N-{4-[(S-methylsulfonimidoyl)methyl]pyridin-2-yl}pyridin-2-amine] |  | 0.24 |  | 0.31 | 0.037
9 | COc1cc(F)ccc1-c1cc(Nc2cc(CS(C)(=N)=O)cc(C(F)(F)F)n2)ncc1F (single isomer, unassigned; (-)) [Example 23, (−)-5-Fluoro-4-(4-fluoro-2-methoxyphenyl)-N-{4-[(S-methylsulfonimidoyl)methyl]-6-(trifluoromethyl)pyridin-2-yl}pyridin-2-amine] |  | 0.022 |  | 0.047 | 0.03
10 | COc1cc(F)ccc1-c1cc(Nc2cc(CS(C)(=N)=O)cc(F)n2)ncc1F (single isomer, unassigned; (-)) [Example 20, (−)-5-Fluoro-4-(4-fluoro-2-methoxyphenyl)-N-{6-fluoro-4-[(S-methylsulfonimidoyl)methyl]pyridin-2-yl}pyridin-2-amine] |  | 0.072 |  | 0.054 | 0.038
11 | CCOC(=O)N=S(C)(=O)Cc1ccnc(Nc2cc(-c3ccc(F)cc3OC)c(F)cn2)c1 (racemic) [Example 11, (rac)-Ethyl{[(2-{[5-fluoro-4-(4-fluoro-2-methoxyphenyl)pyridin-2-yl]amino}pyridin-4-yl)methyl](methyl)oxido-λ^6-sulfanylidene}carbamate] | 0.18 | 0.17 | 0.1 |  | 
12 | CCS(=N)(=O)Cc1ccnc(Nc2cc(-c3ccc(F)cc3OC)c(F)cn2)c1 (racemic) [Example 30, (rac)-N-{4-[(S-Ethylsulfonimidoyl)-methyl]pyridin-2-yl}-5-fluoro-4-(4-fluoro-2-methoxyphenyl)pyridin-2-amine] | 0.12 | 0.21 | 0.074 |  | 
13 | COc1cc(F)ccc1-c1cc(Nc2cc(CS(C)(=N)=O)cc(C(F)(F)F)n2)ncc1F (racemic) [Example 21, (rac)-5-Fluoro-4-(4-fluoro-2-methoxyphenyl)-N-{4-[(S-methylsulfonimidoyl)methyl]-6-(trifluoromethyl)pyridin-2-yl}pyridin-2-amine] | 0.038 | 0.011 | 0.03 |  | 
14 | COc1cc(CS(C)(=N)=O)cc(Nc2cc(-c3ccc(F)cc3OC)c(F)cn2)n1 (racemic) [Example 6, (rac)-5-Fluoro-4-(4-fluoro-2-methoxyphenyl)-N-{6-methoxy-4-[(S-methylsulfonimidoyl)methyl]pyridin-2-yl}pyridin-2-amine] | 0.033 | 0.004 | 0.03 |  | 
